Assay results from patent US5521315A, “Olefin substituted long chain compounds” (priority 1993, dated 1996).

Legend:
[1] = test system: CMV promoter activity in transformed (adenovirus) cells; assay: CMV promoter assay (gene transcription and translation; cytotoxicity in transformed cells); assay type: cell-based; conditions: for cytotoxicity ranking in CMV promoter assay: Table 2 / FIG. 18
Source text: (§1) FIG. 18 illustrates data regarding proliferative activity of various inventive compounds for inducting CMV promoter activity. The CMV promoter assay measures gene transcription and translation activity wherein any active compounds will have cytotoxic activity to inhibit cellular protein synthesis machinery in transformed (adenovirus) cells.
as §1, with “This example” for “FIG. 18”

mast cell degranulation = assay: Serotonin release assay (inhibition of mast cell degranulation); assay type: cell-based; conditions: for RELEASE-SPONT: average corrected for spontaneous release; for AVERAGE % RELEASE: average of duplicates; for % INHIBITION (serotonin release): Table 3
Source text: A serotonin release assay is utilized to study the utility of the inventive compounds for treatment of asthma and allergy. […] This assay measures mast cell degranulation, which is an early phase reaction to allergen challenge. Mast cells grown in tissue culture are first loaded with ^3 H serotonin, which is incorporated into the granules in the cells. The mast cells are sensitized with antigen specific monoclonal IgE, and then triggered to degranulate with the specific antigen (dinitorphenolbound to BSA (DNP)). When the cells degranulate, ^3 H Serotonin is released into the medium, and can be measured directly. The ability of the inventive compounds to inhibit the degranulation response is determined by the decrease in ^3 H Serotonin released in the presence of drug and is represented as % INHIBITION.
Specifically, the serotonin release assay seeds 2×10^5 cells in 0.5 ml medium in duplicate for spontaneous release, IgE+DNP, IgE+DNP+EtOH (vehicle control), and inventive compounds. […] The cells are incubated for 18 hours at 37° C. in 5% CO2, washed twice with 0.5 ml Isotonic Buffer (25 mM disodium PIPES pH 7.1,100 mM NaCl, 5 mM KCl, 5 mM glucose, 0.4 mM MgCl2, 1mM CaCl2, 0.1% BSA), and sterile filtered. 250 μl Isotonic Buffer is added per well and the plates are equilibrated in an incubator for about 10 min. Drug is added and cells are activated with 40 ng/ml DNP-BSA (1 mg/ml Diluted 1:200 in Isotonic Buffer) for 45 minutes using 2 μl/250 μl. Spontaneous release is determined in incubated cells with 250 μl Isotonic Buffer for 45 minutes and the reaction is stopped by removing supernatant and centrifuging at ~4000 rpm in microfuge for 15 seconds to remove any detached cells. Released radiolableled serotonin is counted. To determine amount of ^3 H-serotonin incorporated into the cells, (a) remove Isotonic Buffer and lyse cells by adding 250 μl 1% Triton-X100 in PBS, (b) add to 5 ml scintillation fluid, (c) wash 2× with Triton/PBS, and (d) add washes to scintillation tube. Percent serotonin release is calculated by dividing the amount of released serotonin by the sum of incorporated plus released serotonin and correcting for spontaneous released serotonin. Compound inhibition is calculated by dividing the percent serotonin release in the presence of a compound by the percent serotonin release in the absence of the compound.
This assay is described above and provides an in vitro model for an allergy and asthma therapeutic product.

Row | SMILES | IC50 [1] | RELEASE-SPONT (mast cell degranulation; 50 μM, Table 4) | AVERAGE % RELEASE (mast cell degranulation; 50 μM, Table 4) | inhibition at 50 µM (mast cell degranulation; Mast cell, 50 μM, Table 4) | activity in serotonin release assay (mast cell degranulation; 50 μM) | cytotoxicity ranking in CMV promoter assay [1] | RELEASE-SPONT (mast cell degranulation; 25 uM, Table 4) | AVERAGE % RELEASE (mast cell degranulation; 25 uM, Table 4) | inhibition at 25 µM (mast cell degranulation; Mast cell, 25 uM, Table 4) | % INHIBITION (serotonin release) (mast cell degranulation; 50 μM)
1 | C=CCCCCN1C(=O)c2ccccc2C1=O [CT1101, N(5-hexenyl)phthalimide] | 250 µM | 2.05% | 18.60% | 74.5% |  |  |  |  |  | 
2 | C=CCCCCCCCN1C(=O)c2ccccc2C1=O [CT1102, N(8-nonenyl)phthalimide] | 175 µM | 2.32% | 18.88% | 71.1% |  |  |  |  |  | 
3 | C=CCCCCn1c(=O)n(C)c(=O)c2ccccc21 [CT1203, 1-(5-hexenyl)-3-methylbenzoyleneurea] |  | -1.12% | 15.43% | 114% | appear to be quite potent |  |  |  |  | 
4 | C=CCCCCCCCn1c(=O)c2[nH]cnc2n(C)c1=O [CT1405, 1-(8-nonenyl)-3-methylxanthine] | 100 µM | 5.13% | 21.69% | 36% |  |  |  |  |  | 
5 | C=CCCCCn1c(=O)c2[nH]cnc2n(C)c1=O [CT1438, 1-(5-hexenyl)-3-methylxanthine] | > 500 µM |  |  |  |  |  |  |  |  | 
6 | C=CCn1c(=O)c2c(ncn2C)n(C)c1=O [CT1531, 1-(2-propenyl)-3,7-dimethylxanthine] | 50 µM | 6.99% | 23.55% | 12.8% |  |  |  |  |  | 
7 | C=CCCCCCCCn1c(=O)c2c(ncn2C)n(C)c1=O [CT1550, 1-(8-nonenyl)-3,7-dimethylxanthine] | 75 µM | 6.94% | 23.50% | 13.4% |  |  |  |  |  | 
8 | C=CCCCn1c(=O)c2c(ncn2C)n(C)c1=O [CT1575, 1-(4-pentenyl)-3,7-dimethylxanthine] | > 500 µM | 4.33% | 20.89% | 46% | the two most potent compounds in this group |  |  |  |  | 
9 | C/C=C/CCCn1c(=O)c2c(ncn2C)n(C)c1=O [CT1581, 1-(trans-4-Hexenyl)-3,7-dimethylxanthine] | > 500 µM | 4.31% | 20.87% | 46.3% |  |  |  |  |  | 
10 | CC(C)=CCC[C@@H](C)CCn1c(=O)c2c(ncn2C)n(C)c1=O [CT1596R, 1-(3-(R)-methyl-7-methyloct-6-enyl)-3,7-dimethylxanthine] | > 500 µM | 6.59% | 23.14% | 17.9% |  |  |  |  |  | 
11 | CC(C)=CCC[C@H](C)CCn1c(=O)c2c(ncn2C)n(C)c1=O [CT1596S, 1-(3-(S)-methyl-7-methyloct-6-enyl)-3,7-dimethylxanthine] | 40 µM | 3.15% | 19.71% | 60.7% |  | the most cytotoxic compound tested |  |  |  | 
12 | C=CCCCCCCCN1C(=O)CCCC1=O [CT1604, N-(8-nonenyl)glutarimide] | 100 µM | 0.41% | 16.96% | 94.9% | appear to be quite potent |  | 4.85% | 21.41% | 39.5% | 
13 | CC/C=C\CCCCCN1C(=O)CCCC1=O [CT1607, N-(6-cis-nonenyl)glutarimide] |  | 3.82% | 20.38% | 52.3% | appears to decrease the activity |  |  |  |  | 
14 | C=CCCCCCCCCCN1C(=O)CCCC1=O [CT1610, N-(10-undecenyl)glutarimide] |  | 2.27% | 18.83% | 71.7% |  |  |  |  |  | 
15 | C=CCCCCN1C(=O)CCN(C)C1=O [CT1812, 3-(5-hexenyl)-1-methyldihydrouracil] | > 100 µM | 8.27% | 24.83% | -3.14% | just not having much of an effect at 50 μM |  |  |  |  | no inhibi-
16 | CC/C=C\CCCCCn1c(=O)ccn(C)c1=O [CT1814, 3-(6-cis-nonenyl)1-methyluracil] | 100 µM | 5.94% | 22.50% | 25.9% | appears to decrease the activity |  |  |  |  | 

Row | SMILES | IC50 [1] | RELEASE-SPONT (mast cell degranulation; 50 μM, Table 4) | AVERAGE % RELEASE (mast cell degranulation; 50 μM, Table 4) | inhibition at 50 µM (mast cell degranulation; Mast cell, 50 μM, Table 4) | activity in serotonin release assay (mast cell degranulation; 50 μM) | cytotoxicity ranking in CMV promoter assay [1] | RELEASE-SPONT (mast cell degranulation; 25 uM, Table 4) | AVERAGE % RELEASE (mast cell degranulation; 25 uM, Table 4) | inhibition at 25 µM (mast cell degranulation; Mast cell, 25 uM, Table 4) | % INHIBITION (serotonin release) (mast cell degranulation; 50 μM)
17 | C=CCCCCCCCn1c(=O)ccn(C)c1=O [CT1817, 3-(8-nonenyl)1-methyluracil] | 250 µM | 3.57% | 20.12% | 55.5% |  |  |  |  |  | 
18 | C=CCCCCCCCCCN1C(=O)CCN(C)C1=O [CT1819, 3-(10-undecenyl)-1-methyldihydrouracil] |  | 9.42% | 25.98% | -17.5% | just not having much of an effect at 50 μM |  |  |  |  | no inhibi-
19 | C=CCCCCCCCCCn1c(=O)ccn(C)c1=O [CT1823, 3-(10-undecenyl)1-methyluracil] |  | 4.72% | 21.28% | 41.1% |  |  |  |  |  | 
20 | C=CCCCCn1c(=O)c(C)cn(C)c1=O [CT1905, 3-(5-hexenyl)-1-methylthymine] | > 500 µM | 4.94% | 21.49% | 38.5% |  |  |  |  |  | 
21 | CC/C=C\CCCCCn1c(=O)c(C)cn(C)c1=O [CT1916, 3-(6-cis-nonenyl)-1-methylthymine] | 250 µM | 6.02% | 22.58% | 24.9% | appears to decrease the activity |  |  |  |  | 
22 | C=CCCCCCCCn1c(=O)c(C)cn(C)c1=O [CT1917, 3-(8-nonenyl)-1-methylthymine] | 75 µM | 3.75% | 20.31% | 53.2% |  |  |  |  |  | 
23 | C=CCCCCCCCCCn1c(=O)c(C)cn(C)c1=O [CT1931, 3-(10-undecenyl)-1-methylthymine] |  | 2.23% | 18.78% | 72.2% |  |  |  |  |  | 
24 | C=CCCn1c(=O)c2c(ncn2C)n(C)c1=O [CT2503, 1-(3-butenyl)-3,7-dimethylxanthine] | > 500 µM | 4.87% | 21.43% | 39.2% |  |  |  |  |  | 
25 | C=CC(O)CCCCCn1c(=O)c2c(ncn2C)n(C)c1=O (centres unmarked) [CT2508, 1-(6-hydroxy-7-octenyl)-3,7-dimethylxanthine] | > 500 µM | 2.89% | 19.44% | 64% |  |  |  |  |  | 
26 | C=CCCCCCCCCCCn1c(=O)c2c(ncn2C)n(C)c1=O [CT2516, 1-(11-dodecenyl)-3,7-dimethylxanthine] |  | 5.57% | 22.12% | 30.6% |  |  |  |  |  | 
27 | CCCCCCCCC=CCCCCCCCCn1c(=O)c2c(ncn2C)n(C)c1=O [CT2539, 1-(9-octadecenyl)-3,7-dimethylxanthine] | > 100 µM | 3.13% | 19.69% | 61% |  |  |  |  |  | 
28 | CC(C)=CCCC(C)=CCCC(C)=CCn1c(=O)c2c(ncn2C)n(C)c1=O [CT2544, 1-(Farnesyl)-3,7-dimethylxanthine] | 20 µM | -1.11% | 15.44% | 114% |  | the most cytotoxic compound tested |  |  |  | 
29 | CC(C)=CCC/C(C)=C/Cn1c(=O)c2c(ncn2C)n(C)c1=O [CT2545, 1-(Geranyl)-3,7-dimethylxanthine] | 75 µM | 2.49% | 19.05% | 68.9% |  |  |  |  |  | 
30 | C=CCCCCCCCCCCCn1c(=O)c2c(ncn2C)n(C)c1=O [CT2555, 1-(12-tridecenyl)-3,7-dimethylxanthine] |  | 5.72% | 21.68% | 36.1% |  |  |  |  |  | 
31 | CC/C=C\CCCCCCn1c(=O)c2c(ncn2C)n(C)c1=O [CT2560, 1-(7-cis-decenyl)-3,7-dimethylxanthine] |  | 2.96% | 19.51% | 63.1% | appears to increase the activity |  |  |  |  | 
